Test results published in article PMC12228513 (Journal of the American Chemical Society, 2025).

Biological target: T1, AlnA (Streptomyces sp. CM020, UniProt B6SEG5)
T1 sequence (B6SEG5 1-306): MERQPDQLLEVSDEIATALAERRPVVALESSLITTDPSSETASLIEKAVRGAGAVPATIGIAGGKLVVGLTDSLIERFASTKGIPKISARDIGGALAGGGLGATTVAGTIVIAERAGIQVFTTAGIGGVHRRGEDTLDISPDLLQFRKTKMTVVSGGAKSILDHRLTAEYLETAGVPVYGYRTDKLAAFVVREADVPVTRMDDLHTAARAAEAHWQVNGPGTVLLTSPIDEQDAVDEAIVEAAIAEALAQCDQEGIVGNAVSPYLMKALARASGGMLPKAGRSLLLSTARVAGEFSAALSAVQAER
Test: protein mass spectrometry after NaBH4 trapping
Assay type: binding
Conditions: covalent; Schiff base at Lys159

## O=P(O)(O)OC[C@H]1OC(O)[C@H](O)[C@@H]1O (stereo partly shown) [compound 4, ribose 5-phosphate]
  protein mass spectrometry after NaBH4 trapping; tryptic proteolysis: the covalent modification occurred at the highly conserved Lys159 residue in AlnA
